For experiment [1], the system named is Klebsiella pneumoniae. The experiment in a line: In vivo antibacterial activity against Klebsiella pneumoniae ATCC 13883 induced bacterial pneumonia mouse model assessed as reduction in bacterial load in lungs at 4 mg/kg, injected into trachea after 24 hrs of infection measured after 3 to 7 days. It is filed as functional, organism-based.
Experiment [2] concerns Klebsiella pneumoniae. The experiment is described as follows: In vivo antibacterial activity against Klebsiella pneumoniae ATCC 13883 induced bacterial pneumonia mouse model assessed as reduction in bacterial infection induced IL-1beta level in lung tissue at 4 mg/kg, injected into trachea after 24 hrs of infection measured after 3 to 7 days. The class given is functional, organism-based.

In experiment [3] the test system is Cell membrane. The experiment is described as follows: Binding affinity to methicillin-resistant Staphylococcus aureus ATCC 43300 cell membrane treated with FITC labelled peptides at MIC measured after 1.5 hr by CLSM imaging analysis. The class given is subcellular.
The test system of experiment [4] is Klebsiella pneumoniae. The experiment is described as follows: Antibiofilm activity in Klebsiella pneumoniae ATCC 13883 assessed as reduction in biofilm formation at 4.6 ug/ml measured after 24 hrs by crystal violet staining based assay relative to control. Also noted: scale not given: the % may be the effect or the level left. To be noted: dose 4.6 µg/ml. The class given is functional.

For experiment [5], the system named is Cell membrane. The experiment in a line: Binding affinity to Klebsiella pneumoniae ATCC 13883 cell membrane treated with FITC labelled peptides at MIC measured after 1.5 hr by CLSM imaging analysis. It is filed as subcellular.
Experiment [6] has as its system Klebsiella pneumoniae. The experiment in a line: Antibiofilm activity in Klebsiella pneumoniae ATCC 13883 assessed as prevention of biofilm formation at 0.5 to 4 times of MIC measured after 24 hrs by crystal violet staining based assay. The class given is functional, organism-based.
Experiment [7] concerns Cell membrane. The experiment is described as follows: Induction of cell membrane damage in Klebsiella pneumoniae ATCC 13883 assessed as significant plasma membrane rupture, cytosolic membrane and outer membrane separation, and cytoplasmic leakage at MIC measured after 1 hr incubation by Transmission electron microscopy. The class given is subcellular.
Experiment [8] has as its system Cell membrane. The experiment in a line: Induction of cell membrane damage in methicillin-resistant Staphylococcus aureus ATCC 43300 assessed as increase in green fluorescence at MIC measured after 1 hr incubation by SYTO9 confocal microscopy. It is filed as subcellular.
Experiment [9] deals with Cell membrane. The experiment in a line: Induction of cell membrane damage in methicillin-resistant Staphylococcus aureus ATCC 43300 assessed as increase in red fluorescence at MIC measured after 1 hr incubation by PI based flow cytometry. It is filed as subcellular. For orientation: Flow cytometry measures light scatter and fluorescence of single cells or particles in a stream.

Experiment [10] relates to Cell membrane. The experiment in a line: Induction of cell membrane damage in methicillin-resistant Staphylococcus aureus ATCC 43300 assessed as corrugation, blebbing, breakage, and fragmentation at MIC measured after 1 hr incubation by Scanning electron microscopy. It is filed as subcellular.
Experiment [11] relates to Cell membrane. The experiment is described as follows: Induction of cell membrane damage in methicillin-resistant Staphylococcus aureus ATCC 43300 assessed as significant plasma membrane rupture, […], and cytoplasmic leakage at MIC measured after 1 hr incubation by Transmission electron microscopy. It is filed as subcellular.

Experiment [12] deals with Staphylococcus aureus. The experiment is described as follows: In vivo antibacterial activity against methicillin-resistant Staphylococcus aureus ATCC 43300 infected locally in full thickness skin wound mouse model assessed as decrease in edema and ulcerative tissue in wound at 4 mg/kg treated with absorbable gelatin sponge measured after 7 days. The class given is functional, organism-based. To be noted: time 7.0 day.

Experiment [13] deals with Staphylococcus aureus. The experiment is described as follows: Antibacterial activity against methicillin-resistant Staphylococcus aureus ATCC 43300 assessed as reduction in bacterial count at 4.6 ug/ml in bio-film adjusted BM2 medium. It is filed as functional, organism-based. The conditions noted are these: dose 4.6 µg/ml.
Experiment [14] relates to Cell membrane. The experiment in a line: Induction of cell membrane damage in Klebsiella pneumoniae ATCC 13883 assessed as increase in red fluorescence at MIC measured after 1 hr incubation by PI based flow cytometry. It is filed as subcellular.
For experiment [15], the system named is Klebsiella pneumoniae. The experiment is described as follows: In vivo antibacterial activity against Klebsiella pneumoniae ATCC 13883 induced bacterial pneumonia mouse model assessed as reduction in bacterial infection induced inflammatory response in lungs by measuring large number of alveoli at 4 mg/kg, injected into trachea after 24 hrs of infection measured after 3 to 7 days by H and E staining based assay. It is filed as functional, organism-based.

Activity calls are given as the source filed them. The calls are words filed in the database; no cut-off is given here. Positions of bridges follow the written chain, without caps; N, C: chain ends. Non-standard residues stand in square brackets, D forms with d. Residues, ends and D or L forms follow the SMILES beside them. Arg(Nω-βLac) = N=C(NCCC[C@H](N)C(=O)O)N[C@@H]1O[C@H](CO)[C@@H](O[C@@H]2O[C@H](CO)[C@H](O)[C@H](O)[C@H]2O)[C@H](O)[C@H]1O; S5 = C=CCCC[C@](C)(N)C(=O)O

`CC(=O)N[C@@H](CCCCN)C(=O)N[C@@H](CCCCN)C(=O)N[C@@H](CCCNC(=N)N)C(=O)N[C@H](C(=O)N[C@@H](CCCCN)C(=O)N[C@@H](CCCCN)C(=O)N[C@@H](CCCNC(=N)N)C(=O)N[C@@]1(C)CCC/C=C\CCC[C@@](C)(C(=O)N[C@@H](CCCCN)C(=O)N[C@@]2(C)CCC/C=C\CCC[C@@](C)(C(=O)N[C@@H](CC(C)C)C(=O)N[C@@H](CCCCN)C(=O)N[C@@H](CCCCN)C(=O)N3CCC[C@H]3C(=O)N[C@H](C(=O)N[C@@H](CCCNC(=N)N[C@@H]3O[C@H](CO)[C@@H](O[C@@H]4O[C@H](CO)[C@H](O)[C@H](O)[C@H]4O)[C@H](O)[C@H]3O)C(N)=O)C(C)C)NC(=O)[C@H](CCCNC(=N)N)NC(=O)[C@H](Cc3c[nH]c4ccccc34)NC(=O)[C@H](Cc3ccc(O)cc3)NC2=O)NC(=O)[C@H](CC(C)C)NC(=O)[C@H](CCCCN)NC(=O)[C@H](Cc2ccccc2)NC1=O)C(C)C` (Ac-KKRVKKR[S5]FKL[S5]K[S5]YWR[S5]LKKPV[Arg(Nω-βLac)]-NH2; staple (Z) 8-12, 14-18): the Activity result in experiment [1] is “Active; Compound Showed Superior Therapeutic Effect Than Slp-0”; in [3], “Active; Compound Exhibited Brighter Red”; in experiment [4] it was 98.18%; in experiment [5], “Active; Compound Exhibited Brighter Red”; in experiment [6], “Dose-dependent-effect”. In addition, the result in experiment [2], in experiment [7], in [8], in experiment [9], in [10] and in experiment [11] was Active. In addition, the outcome in experiment [12], in experiment [14] and in [15] was Active. Further, the outcome in [13] was inactive.

The values above are taken from ChEMBL document CHEMBL6153110, “Peptide Double-Stapling and Arginine N-Glycosylation Triggered the Development of Therapeutic Antimicrobial Peptides Capable of Killing Drug-Resistant Bacteria in Mice” (J Med Chem, 2025).
